Measured values reported in ChEMBL document CHEMBL1201862, “PubChem BioAssay data set” (2004).
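A five-concentration, 48-hour dose response in 96-well plates underlies each endpoint, interpolated linearly between surrounding concentrations. GI50: concentration for 50% inhibition of growth.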 Activity calls are given as the source filed them. Rule as the data show it: active = GI50 up to about 1.1 µM and inactive = higher.

Assays:
Test in all cases: growth of human tumour cells (NCI), 48 h
[1] = tested on: RXF 393
[2] = tested on: NCI-H23
[3] = tested on: BT-549
[4] = tested on: NCI-H460
[5] = tested on: CAKI-1
[6] = tested on: TK-10
[7] = tested on: EKVX
[8] = tested on: Malme-3M
[9] = tested on: OVCAR-5
[10] = tested on: SK-OV-3
[11] = tested on: OVCAR-8
[12] = tested on: IGROV-1
[13] = tested on: UACC-62
[14] = tested on: NCI/ADR-RES
[15] = tested on: COLO 205
[16] = tested on: HCT-116
[17] = tested on: CCRF-CEM
[18] = tested on: HOP-92
[19] = tested on: ACHN

Structure (SMILES) | GI50 [1] | GI50 [2] | GI50 [3] | GI50 [4] | GI50 [5] | GI50 [6] | GI50 [7] | GI50 [8] | GI50 [9] | GI50 [10] | GI50 [11] | GI50 [12] | GI50 [13] | GI50 [14] | GI50 [15] | GI50 [16] | GI50 [17] | GI50 [18] | GI50 [19]
c1ccc2c(c1)c1c(c3ccccc32)CN2CCCC2C1 (centres undefined) | 2.34 µM (inactive) | 2.94 µM (inactive) | 5.05 µM (inactive) | 3.03 µM (inactive) | 4.07 µM (inactive) | 10.4 µM (inactive) | 4.74 µM (inactive) | 2.45 µM (inactive) | 3.94 µM (inactive) | 7.52 µM (inactive) | 3.17 µM (inactive) | 2.7 µM (inactive) | 2.33 µM (inactive) | 3.94 µM (inactive) | 3.63 µM (inactive) | 3.17 µM (inactive) | 2.99 µM (inactive) | 2.84 µM (inactive) | 3.01 µM (inactive)
Nc1ccc2c(c1)N(C(=O)c1cc3cc(NC(=O)c4cc5ccccc5o4)ccc3[nH]1)CC2CCl (centres undefined) | 0.018 µM (active) | 0.0211 µM (active) | 0.164 µM (active) | 0.0205 µM (active) | 0.0338 µM (active) | 0.283 µM (active) | 0.262 µM (active) | 0.122 µM (active) | 0.114 µM (active) | 0.128 µM (active) | 0.0397 µM (active) | 0.108 µM (active) | 0.112 µM (active) | 0.0332 µM (active) | 0.0904 µM (active) | 0.0533 µM (active) | 0.0405 µM (active) | 0.168 µM (active) | 0.0199 µM (active)
CN(C)CCn1nc(N)c2nc3cc(C(F)(F)F)ccc3nc21 | 26.4 µM (inactive) | > 100 µM (inactive) | 99.8 µM (inactive) | 51.4 µM (inactive) | 90.2 µM (inactive) | > 100 µM (inactive) | > 100 µM (inactive) | > 100 µM (inactive) | > 100 µM (inactive) | > 100 µM (inactive) | 88.3 µM (inactive) | 41.5 µM (inactive) | > 100 µM (inactive) | > 100 µM (inactive) | 27.7 µM (inactive) | > 100 µM (inactive) | 79.3 µM (inactive) | 79.4 µM (inactive) | > 100 µM (inactive)
Nc1cccc2cc(S(=O)(=O)Nc3ccc(C(=O)O)cc3)ccc12 | > 100 µM (inactive) | > 100 µM (inactive) | > 100 µM (inactive) | > 100 µM (inactive) | > 100 µM (inactive) | > 100 µM (inactive) | > 100 µM (inactive) | > 100 µM (inactive) | > 100 µM (inactive) | > 100 µM (inactive) | > 100 µM (inactive) | > 100 µM (inactive) | > 100 µM (inactive) | > 100 µM (inactive) | > 100 µM (inactive) | > 100 µM (inactive) | > 100 µM (inactive) | > 100 µM (inactive) | > 100 µM (inactive)
CCOP(=O)(OCC)C(C)(C)OC(=O)NC#N | > 100 µM (inactive) | > 100 µM (inactive) | 79.6 µM (inactive) | > 100 µM (inactive) | > 100 µM (inactive) | > 100 µM (inactive) | > 100 µM (inactive) | > 100 µM (inactive) | > 100 µM (inactive) | > 100 µM (inactive) | > 100 µM (inactive) | > 100 µM (inactive) | > 100 µM (inactive) | > 100 µM (inactive) | > 100 µM (inactive) | > 100 µM (inactive) | > 100 µM (inactive) | > 100 µM (inactive) | > 100 µM (inactive)
Cc1nc2sc(C(=O)c3ccc(Cl)cc3)c(N)c2c(-c2ccccc2Cl)c1C(=O)Nc1ccccc1 | 14.7 µM (inactive) | 16.6 µM (inactive) | 20.2 µM (inactive) | 9.02 µM (inactive) | 12 µM (inactive) | 6.76 µM (inactive) | 21.9 µM (inactive) | 13 µM (inactive) | 16 µM (inactive) | 14.4 µM (inactive) | 13.4 µM (inactive) | 19 µM (inactive) | 13.6 µM (inactive) | 19.5 µM (inactive) | 18.3 µM (inactive) | 6.44 µM (inactive) | 3.77 µM (inactive) | 3.08 µM (inactive) | 21.2 µM (inactive)
